Experimental data from ChEMBL document CHEMBL4257548, “Phenothiazine antioxidants increase mitochondrial biogenesis and frataxin levels in Friedreich's ataxia cells” (Medchemcomm, 2018).
Activity calls are given as the source filed them. No cut-off for these calls is given here.

Legend:
[1] = tested on: GM15850; assay: Increase in frataxin expression in human GM15850 cells at 50 to 250 nM after 24 to 48 hrs by ELISA; assay type: functional, cell-based
[2] = tested on: GM15850; assay: Cytotoxicity against human GM15850 cells at 0.25 to 2.5 uM after 24 to 48 hrs by live/dead staining-based flow cytometry; assay type: cell-based; conditions: gm15850, 2.5 µM
[3] = tested on: GM16216; assay: Effect on mitochondrial membrane potential in human GM16216 cells assessed as loss of mitochondrial membrane potential at 0.25 uM after 16 hrs by JC1 staining based flow cytometry (reference value: 13%); assay type: functional
[4] = tested on: GM16216; assay: Effect on ATP production in human GM16216 cells at 0.1 to 0.5 uM after 24 hrs by Vialight reagent based luminescence assay; assay type: functional, cell-based
[5] = tested on: GM15850; assay: Effect on mitochondrial membrane potential in human GM15850 cells assessed as loss of mitochondrial membrane potential at 0.25 uM after 16 hrs by JC1 staining based flow cytometry (reference value: 13%); assay type: functional
[6] = tested on: GM16216; assay: Inhibition of ATP production in human GM16216 cells at 2.5 uM after 24 hrs by Vialight reagent based luminescence assay; assay type: functional, cell-based
[7] = tested on: GM15850; assay: Effect on mitochondrial membrane potential in human GM15850 cells assessed as intact mitochondrial membrane at 0.25 uM after 16 hrs by JC1 staining based flow cytometry (reference value: 87%); assay type: functional
[8] = tested on: GM15850; assay: Inhibition of ATP production in human GM15850 cells at 2.5 uM after 24 hrs by Vialight reagent based luminescence assay; assay type: functional, cell-based
[9] = tested on: GM15850; assay: Effect on ATP production in human GM15850 cells at 0.1 to 0.5 uM after 24 hrs by Vialight reagent based luminescence assay; assay type: functional, cell-based
[10] = tested on: GM16216; assay: Increase in frataxin expression in human GM16216 cells at 50 to 250 nM after 24 to 48 hrs by ELISA; assay type: functional, cell-based
[11] = tested on: GM16216; assay: Cytotoxicity against human GM16216 cells at 0.25 to 2.5 uM after 24 to 48 hrs by live/dead staining-based flow cytometry; assay type: cell-based; conditions: gm16216, 2.5 µM
[12] = tested on: GM16216; assay: Effect on mitochondrial membrane potential in human GM16216 cells assessed as intact mitochondrial membrane at 0.25 uM after 16 hrs by JC1 staining based flow cytometry (reference value: 87%); assay type: functional
[13] = tested on: GM15850; assay: Induction of mitochondrial biogenesis in human GM15850 cells assessed as increase in ratio of COX1 to SDH-A protein levels at 50 to 250 nM after 24 to 48 hrs by ELISA; assay type: functional, cell-based
[14] = tested on: GM16216; assay: Induction of mitochondrial biogenesis in human GM16216 cells assessed as increase in ratio of COX1 to SDH-A protein levels at 50 to 250 nM after 24 to 48 hrs by ELISA; assay type: functional, cell-based
[15] = tested on: GM16216; assay: Effect on frataxin expression in human GM16216 cells at 250 nM after 24 hrs by ELISA relative to control; assay type: functional
[16] = tested on: GM16216; assay: Restoration of total aconitase activity in human GM16216 cells at 50 nM after 5 days by colorimetric method relative to control; assay type: functional
[17] = tested on: GM15850; assay: Cytoprotection against DEM-induced toxicity in human GM15850 cells assessed as increase in cell viability pretreated for 16 hrs followed by DEM addition and measured after 5 hrs by live/dead staining based flow cytometry; assay type: functional
[18] = tested on: GM15850; assay: Induction of mitochondrial biogenesis in human GM15850 cells assessed as ratio of COX1 to SDH-A protein levels at 50 after 24 hrs by ELISA relative to control; assay type: functional
[19] = tested on: GM15850; assay: Increase in ATP production in human GM15850 cells at 0.1 to 0.5 uM after 24 hrs by Vialight reagent based luminescence assay; assay type: functional, cell-based
[20] = tested on: GM16216; assay: Effect on frataxin expression in human GM16216 cells at 50 nM after 24 hrs by ELISA relative to control; assay type: functional
[21] = tested on: GM15850; assay: Induction of mitochondrial biogenesis in human GM15850 cells assessed as ratio of COX1 to SDH-A protein levels at 250 after 48 hrs by ELISA relative to control; assay type: functional
[22] = tested on: GM16216; assay: Induction of mitochondrial biogenesis in human GM16216 cells assessed as ratio of COX1 to SDH-A protein levels at 50 after 48 hrs by ELISA relative to control; assay type: functional
[23] = tested on: GM15850; assay: Effect on frataxin expression in human GM15850 cells at 50 nM after 48 hrs by ELISA relative to control; assay type: functional
[24] = tested on: GM16216; assay: Induction of mitochondrial biogenesis in human GM16216 cells assessed as ratio of COX1 to SDH-A protein levels at 250 after 48 hrs by ELISA relative to control; assay type: functional
[25] = tested on: GM16216; assay: Effect on frataxin expression in human GM16216 cells at 50 nM after 48 hrs by ELISA relative to control; assay type: functional
[26] = tested on: GM15850; assay: Restoration of total aconitase activity in human GM15850 cells at 50 nM after 5 days by colorimetric method relative to control; assay type: functional
[27] = tested on: GM16216; assay: Induction of mitochondrial biogenesis in human GM16216 cells assessed as ratio of COX1 to SDH-A protein levels at 50 after 24 hrs by ELISA relative to control; assay type: functional
[28] = tested on: GM15850; assay: Restoration of total aconitase activity in human GM15850 cells after 5 days by colorimetric method; assay type: functional, cell-based
[29] = tested on: GM16216; assay: Cytoprotection against DEM-induced toxicity in human GM16216 cells assessed as increase in cell viability pretreated for 16 hrs followed by DEM addition and measured after 5 hrs by live/dead staining based flow cytometry; assay type: functional
[30] = tested on: GM16216; assay: Induction of mitochondrial biogenesis in human GM16216 cells assessed as ratio of COX1 to SDH-A protein levels at 250 after 24 hrs by ELISA relative to control; assay type: functional
[31] = tested on: GM15850; assay: Restoration of total aconitase activity in human GM15850 cells at 250 nM after 5 days by colorimetric method relative to control; assay type: functional
[32] = tested on: GM15850; assay: Induction of mitochondrial biogenesis in human GM15850 cells assessed as ratio of COX1 to SDH-A protein levels at 250 after 24 hrs by ELISA relative to control; assay type: functional
[33] = tested on: GM15850; assay: Effect on frataxin expression in human GM15850 cells at 250 nM after 24 hrs by ELISA relative to control; assay type: functional
[34] = tested on: GM15850; assay: Effect on frataxin expression in human GM15850 cells at 50 nM after 24 hrs by ELISA relative to control; assay type: functional
[35] = tested on: GM16216; assay: Increase in ATP production in human GM16216 cells at 0.1 to 0.5 uM after 24 hrs by Vialight reagent based luminescence assay; assay type: functional, cell-based
[36] = tested on: GM16216; assay: Restoration of total aconitase activity in human GM16216 cells at 250 nM after 5 days by colorimetric method relative to control; assay type: functional
[37] = tested on: GM15850; assay: Effect on frataxin expression in human GM15850 cells at 250 nM after 48 hrs by ELISA relative to control; assay type: functional
[38] = tested on: GM15850; assay: Induction of mitochondrial biogenesis in human GM15850 cells assessed as ratio of COX1 to SDH-A protein levels at 50 after 48 hrs by ELISA relative to control; assay type: functional
[39] = tested on: GM16216; assay: Effect on frataxin expression in human GM16216 cells at 250 nM after 48 hrs by ELISA relative to control; assay type: functional
[40] = tested on: GM15850; assay: Effect on ATP production in human GM15850 cells at 0.1 uM after 24 hrs by Vialight reagent based luminescence assay; assay type: functional, cell-based
[41] = tested on: GM15850; assay: Cytotoxicity against human GM15850 cells at 2.5 uM after 48 hrs by live/dead staining-based flow cytometry; assay type: cell-based; conditions: gm15850, 48 h
[42] = tested on: GM16216; assay: Cytotoxicity against human GM16216 cells at 2.5 uM after 48 hrs by live/dead staining-based flow cytometry; assay type: cell-based; conditions: gm16216, 48 h
[43] = tested on: GM16216; assay: Effect on ATP production in human GM16216 cells at 0.1 uM after 24 hrs by Vialight reagent based luminescence assay; assay type: functional, cell-based
[44] = tested on: GM15850; assay: Inhibition of ATP production in human GM15850 cells after 24 hrs by Vialight reagent based luminescence assay; assay type: functional, cell-based
[45] = tested on: GM16216; assay: Inhibition of ATP production in human GM16216 cells after 24 hrs by Vialight reagent based luminescence assay; assay type: functional, cell-based
[46] = tested on: GM16216; assay: Effect on ATP production in human GM16216 cells at 0.5 uM after 24 hrs by Vialight reagent based luminescence assay; assay type: functional, cell-based
[47] = tested on: GM15850; assay: Effect on ATP production in human GM15850 cells at 0.5 uM after 24 hrs by Vialight reagent based luminescence assay; assay type: functional, cell-based
[48] = tested on: GM15850; assay: Increase in ATP production in human GM15850 cells at 0.1 uM after 24 hrs by Vialight reagent based luminescence assay; assay type: functional, cell-based
[49] = tested on: GM16216; assay: Increase in ATP production in human GM16216 cells at 0.1 uM after 24 hrs by Vialight reagent based luminescence assay; assay type: functional, cell-based

`CCCCCCCCCCCCCc1cc2nc3ccc(N(C)C)cc3sc-2cc1=O` was tested, and the Activity [1] was “Active”, the Activity [2] was “Non-Toxic” and the Activity [3] was 13%. The Activity [4] was “inactive”, the Activity [5] was 13% and the inhibition [6] was “Active”. For the same molecule, the Activity [7] was 87%, the inhibition [8] was “Active” and the Activity [9] was “inactive”. For the same molecule, the Activity [10] was “Active”, the Activity [11] was “Non-Toxic” and the Activity [12] was 87%. The Activity [13] was “Active” and the Activity [14] was “Active”.
`CCCCCCCCCCCCCCCCc1cc2nc3ccc(N(C)C)cc3sc-2cc1=O` was tested, and the Activity [1] was “Active”, the Activity [15] was 127% and the Activity [16] was 121%. For the same molecule, the Activity [2] was “Non-Toxic”, the Activity [3] was 12% and the Activity [17] was “Dose-dependent effect”. The Activity [18] was 127%, the Activity [19] was “Active” and the Activity [20] was 120%. It also gave an Activity [21] of 139%, an Activity [22] of 132% and an Activity [23] of 124%. The Activity [5] was 12%, the Activity [24] was 139% and the Activity [25] was 124%. The Activity [26] was 121%, the Activity [27] was 127% and the Activity [28] was “Dose-dependent effect”. For the same molecule, the Activity [29] was “Dose-dependent effect”, the inhibition [6] was “Active” and the Activity [7] was 88%. For the same molecule, the inhibition [8] was “Active”, the Activity [30] was 132% and the Activity [31] was 124%. For the same molecule, the Activity [32] was 132%, the Activity [33] was 127% and the Activity [10] was “Active”. The Activity [11] was “Non-Toxic”, the Activity [34] was 120% and the Activity [35] was “Active”. For the same molecule, the Activity [36] was 124%, the Activity [37] was 131% and the Activity [38] was 132%. The Activity [12] was 88%, the Activity [13] was “Active” and the Activity [14] was “Active”. It also gave an Activity [39] of 131%.
`CCCCCc1cc2nc3ccc(N(C)C)cc3sc-2cc1=O` was tested, and the Activity [40] was “inactive”, the Activity [3] was 16% and the Activity [41] was “Toxic”. The Activity [17] was “Dose-dependent effect”, the Activity [5] was 16% and the Activity [29] was “Dose-dependent effect”. The Activity [7] was 84%, the Activity [42] was “Toxic” and the Activity [43] was “inactive”. For the same molecule, the Activity [12] was 84%, the inhibition [44] was “Dose-dependent effect” and the inhibition [45] was “Dose-dependent effect”.
`CCCCCCCCCCCc1cc2nc3ccc(N(C)C)cc3sc-2cc1=O` was tested, and the Activity [46] was “inactive”, the Activity [47] was “inactive” and the Activity [1] was “Active”. The Activity [2] was “Non-Toxic”, the Activity [3] was 14% and the Activity [17] was “Dose-dependent effect”. The Activity [5] was 14%, the Activity [29] was “Dose-dependent effect” and the Activity [48] was “Active”. The inhibition [6] was “Active”, the Activity [7] was 86% and the inhibition [8] was “Active”. The Activity [49] was “Active”, the Activity [10] was “Active” and the Activity [11] was “Non-Toxic”. For the same molecule, the Activity [12] was 86%, the Activity [13] was “Active” and the Activity [14] was “Active”.
